Source: patent US4224329A, “2-Substitute d-trans-5-aryl-2,3,4,4a,5,9b-hexahydro-1H-pyrido[4,3-b]indoles” (Pfizer Inc., priority 1979, dated 1980)
Where a name gives a salt, the structure may show the parent alone. Read-outs that look alike come from different tables or passages of the source.

Columns and labels:
Amphetamine Stereotypy = assay: Antagonism of Amphetamine Stereotypy in Rats (ED50 for blocking characteristic amphetamine cage movement); format: in vivo; details: Rattus norvegicus
Method: The effects of the compounds of the present invention on prominent amphetamine-induced symptoms were studied in rats by a rating scale modeled after the one reported by Quinton and Halliwell, and Weissman. Groups of five rats were placed in a covered plastic cage measuring approximately 26 cm.×42 cm.×16 cm. […] They were then treated 1, 5 and 24 hrs. later with d-amphetamine sulfate, 5 mg./kg. intraperitoneally (i.p.). […] On the basis of dose-response data after amphetamine it was possible to determine the effective dose of the compound necessary to antagonize or block the characteristic amphetamine behavior of cage movement for fifty percent of the rats tested (ED50). The time of rating chosen coincides with the peak action of amphetamine which is 60-80 min. after treatment with this agent.
Employing the above-described procedure, the following 4a,9b-trans compounds were tested for their ability to block the behavior effects of amphetamine, the results being reported as the ED50 in mg./kg. at the indicated times: [drawing 30]
A. The following results were obtained on the mixture of diastereomers for those compounds wherein R contains a secondary alcohol group and on the single diastereomer of the other 4a, 9b-trans hexahydro-pyrido-indoles.
B. The results of tests in which compounds of the invention reported in Part A, above are compared with the corresponding δ-substituted-5-aryl-1,2,3,4-tetrahydropyrido[4,3-b]indoles of U.S. Pat. No. 4,001,263 are summarized below. For each pair the results obtained on the prior art compound (a) are given first and the results for the compound of the invention (b) are given second. Where indicated the test compound was also administered orally (p.o.) and tests were carried out for 48 hours.
C. […] In each case the compounds are of the formula
The tests were carried out for 72 hours.

dopamine receptors = dopamine receptors (Rattus norvegicus, UniProt P61169); assay: Inhibition of 3H-Spiroperidol Binding to Dopamine Receptors (rat corpus striatum); set-up: species or system rats (Sprague-Dawley CD males); details: 0.5 nM 3H-spiroperidol, 10 minutes at 37° C.
dopamine receptors, sequence (P61169 whole entry): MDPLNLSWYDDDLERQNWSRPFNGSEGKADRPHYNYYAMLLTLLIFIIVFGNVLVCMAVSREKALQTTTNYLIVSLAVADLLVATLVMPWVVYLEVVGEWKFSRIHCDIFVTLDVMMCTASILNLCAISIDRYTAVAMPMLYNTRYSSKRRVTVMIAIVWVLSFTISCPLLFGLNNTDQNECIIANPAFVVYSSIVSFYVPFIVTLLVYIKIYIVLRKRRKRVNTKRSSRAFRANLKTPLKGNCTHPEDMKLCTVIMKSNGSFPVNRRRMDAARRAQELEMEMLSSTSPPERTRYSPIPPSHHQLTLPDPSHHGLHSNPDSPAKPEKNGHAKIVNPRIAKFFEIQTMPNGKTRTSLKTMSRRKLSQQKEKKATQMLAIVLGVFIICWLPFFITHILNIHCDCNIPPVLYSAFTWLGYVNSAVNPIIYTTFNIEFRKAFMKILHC

[1] = ip, 1 h, i.p., Part B, read-out: ED50, 1 Hr.
[2] = ip, 5 h, i.p., Part B, read-out: ED50, 5 Hrs.
[3] = ip, 24 h, i.p., Part B, read-out: ED50, 24 Hrs.
[4] = sc, 1 h, s.c., Part A, read-out: ED50, 1 Hr.
[5] = sc, 5 h, s.c., Part A, read-out: ED50, 5 Hr.
[6] = sc, 24 h, s.c., Part A, read-out: ED50, 24 Hrs.
[7] = sc, 1 h, s.c., Part C, isomers of Examples 13 and 14, read-out: ED50, 1 Hr.
[8] = sc, 5 h, s.c., Part C, isomers of Examples 13 and 14, read-out: ED50, 5 Hrs.
[9] = sc, 24 h, s.c., Part C, isomers of Examples 13 and 14, read-out: ED50, 24 Hrs.

For `OC(CCCN1CCc2c(c3cc(F)ccc3n2-c2ccc(F)cc2)C1)c1ccc(F)cc1` (stereo not drawn) [drawing 41 (a), 8-Fluoro-5-(p-fluorophenyl)-2-[4-(p-fluorophenyl)-4-hydroxybutyl]-1,2,3,4-tetrahydro-γ-carboline hydrochloride, reference compound], the ED50 (Amphetamine Stereotypy; [1]) was 0.1 to 0.32 mg/kg, the ED50 (Amphetamine Stereotypy; [2]) was 0.1 to 3.2 mg/kg and the ED50 (Amphetamine Stereotypy; [3]) was 1 to 3.2 mg/kg. It also gave an ED50 (Amphetamine Stereotypy; po, 1 h, p.o., Part B, read-out: ED50, 1 Hr.) of 1 to 3.2 mg/kg, an ED50 (Amphetamine Stereotypy; po, 5 h, p.o., Part B, read-out: ED50, 5 Hrs.) of 0.32 to 1 mg/kg and an ED50 (Amphetamine Stereotypy; po, 24 h, p.o., Part B, read-out: ED50, 24 Hrs.) of 1 to 3.2 mg/kg.

Compound `OC(CCCN1CCc2c(c3ccccc3n2-c2ccccc2)C1)c1ccccc1` (stereo not drawn) [drawing 40 (a), reference compound] has an ED50 (Amphetamine Stereotypy; [1]) of 3.2 to 10 mg/kg, an ED50 (Amphetamine Stereotypy; [2]) of 3.2 to 10 mg/kg and an ED50 (Amphetamine Stereotypy; [3]) of over 10 mg/kg.

In the case of `c1ccc(CN2CC[C@H]3[C@H](C2)c2ccccc2N3c2ccccc2)cc1` (relative stereo) [R = C6 H5 CH2, dl-trans-2-benzyl-2,3,4,4a,5,9b-hexahydro-5-phenyl-1H-pyrido[4,3-b]indole Hydrochloride, reference compound], the ED50 (Amphetamine Stereotypy; [4]) is reported as about 10 mg/kg, the ED50 (Amphetamine Stereotypy; [5]) is reported as 3.2 to 32 mg/kg and the ED50 (Amphetamine Stereotypy; [6]) is reported as over 3.2 mg/kg.

`OC(CCCN1CCc2c(c3cc(F)ccc3n2-c2ccccc2F)C1)c1ccc(F)cc1` (stereo not drawn) [drawing 43 (a), reference compound] showed an ED50 (Amphetamine Stereotypy; [1]) of 0.32 to 1 mg/kg, an ED50 (Amphetamine Stereotypy; [2]) of 1 to 3.2 mg/kg and an ED50 (Amphetamine Stereotypy; [3]) of over 10 mg/kg.

`OC(CCCN1CC[C@H]2[C@H](C1)c1ccccc1N2c1ccccc1)c1ccc(F)cc1` (relative stereo) gave an ED50 (Amphetamine Stereotypy; [4]) of 0.1 to 0.32 mg/kg, an ED50 (Amphetamine Stereotypy; [5]) of 0.1 to 0.32 mg/kg and an ED50 (Amphetamine Stereotypy; [6]) of 0.1 to 0.32 mg/kg.

`OC(CCCN1CC[C@H]2[C@H](C1)c1ccccc1N2c1ccccc1)c1ccccc1` (relative stereo) gave an ED50 (Amphetamine Stereotypy; [1]) of 0.032 to 0.1 mg/kg, an ED50 (Amphetamine Stereotypy; [2]) of 0.032 to 0.1 mg/kg and an ED50 (Amphetamine Stereotypy; [3]) of 0.1 to 0.32 mg/kg. For the same compound, the ED50 (Amphetamine Stereotypy; [4]) was 0.032 to 0.1 mg/kg, the ED50 (Amphetamine Stereotypy; [5]) was 0.032 to 0.1 mg/kg and the ED50 (Amphetamine Stereotypy; [6]) was 0.1 to 0.32 mg/kg.

`O=C(CCCN1CC[C@H]2[C@H](C1)c1ccccc1N2c1ccccc1)c1ccc(F)cc1` (relative stereo) gave an ED50 (Amphetamine Stereotypy; [4]) of about 0.32 mg/kg, an ED50 (Amphetamine Stereotypy; [5]) of 0.1 to 0.32 mg/kg and an ED50 (Amphetamine Stereotypy; [6]) of about 0.32 mg/kg.

In the case of `OC(CCCN1CC[C@H]2[C@H](C1)c1cc(F)ccc1N2c1ccc(F)cc1)c1ccc(F)cc1` (relative stereo) [αβγδ, dl-trans-8-Fluoro-5-(p-fluorophenyl)-2-[4-hydroxy-4-(p-fluorophenyl)butyl]-2,3,4,4a,5,9b-hexahydro-1H-pyrido[4,3-b]indole hydrochloride], the ED50 (Amphetamine Stereotypy; [7]) is reported as 0.032 to 0.1 mg/kg, the ED50 (Amphetamine Stereotypy; [8]) is reported as 0.032 to 0.1 mg/kg and the ED50 (Amphetamine Stereotypy; [9]) is reported as 0.032 to 0.1 mg/kg. It also gave an IC50 (dopamine receptors) of 21 nM.

In the case of `Cl.OC(CCCN1CCC2C(C1)c1cc(F)ccc1N2c1ccc(F)cc1)c1ccc(F)cc1` (single isomer, unassigned) [β, 8-fluoro-5-(p-fluorophenyl)-2-[4-hydroxy-4-(p-fluorophenyl)butyl]-2,3,4,4a,5,9b-hexahydro-1H-pyrido[4,3-b]indole hydrochloride], the ED50 (Amphetamine Stereotypy; [7]) is reported as over 1 mg/kg, the ED50 (Amphetamine Stereotypy; sc, 1 h, s.c., Part D, enantiomers by synthesis of Example 21, read-out: ED50, 1 Hr.) is reported as over 10 mg/kg and the ED50 (Amphetamine Stereotypy; [8]) is reported as over 1 mg/kg. For the same compound, the ED50 (Amphetamine Stereotypy; sc, 5 h, s.c., Part D, enantiomers by synthesis of Example 21, read-out: ED50, 5 Hrs.) was 5.7 mg/kg, the ED50 (Amphetamine Stereotypy; [9]) was over 1 mg/kg and the ED50 (Amphetamine Stereotypy; sc, 24 h, s.c., Part D, enantiomers by synthesis of Example 21, read-out: ED50, 24 Hrs.) was over 10 mg/kg. The ED50 (Amphetamine Stereotypy; sc, 48 h, s.c., Part D, enantiomers by synthesis of Example 21, read-out: ED50, 48 Hrs.) was over 10 mg/kg and the ED50 (Amphetamine Stereotypy; sc, 72 h, s.c., Part D, enantiomers by synthesis of Example 21, read-out: ED50, 72 Hrs.) was over 10 mg/kg.

`CN1CCN(CC/C=C2/c3ccccc3Sc3ccc(S(=O)(=O)N(C)C)cc32)CC1` [Navane, cis-9-[3-(4-Methyl-1-piperazinyl)propylidene]-2-(dimethylsulfonamido)thioanthene, reference compound] gave an ED50 (Amphetamine Stereotypy; po, 1 h, po, Part A, read-out: ED50, 1 Hr.) of 0.32 to 1 mg/kg, an ED50 (Amphetamine Stereotypy; po, 5 h, po, Part A, read-out: ED50, 5 Hr.) of over 10 mg/kg and an ED50 (Amphetamine Stereotypy; po, 24 h, po, Part A, read-out: ED50, 24 Hrs.) of over 32 mg/kg.
